The IC50 is the midpoint of a concentration-inhibition curve.

The subject of experiment [1] is MOLM-14 D835Y (endogenous FLT3 ITD and transfected FLT3 D835Y). Nature of the experiment: MOLM-14 D835Y cell proliferation assay (CellTiter-Glo). Type of experiment: cell-based. The conditions noted are these: Homo sapiens, MOLM-14, 72 h; 3 d growth, GMean. A digest of the protocol: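 MOLM-14 derivatives carrying D835Y or F691L, selected under escalating AC220, were seeded at 1×10^4 cells/well and exposed to an 8-point 1:3 compound series (1 to 0.00046 μM, 0.2% DMSO final) for three days at 37° C., 5% CO2. CellTiter-Glo luminescence (ATP content) versus concentration gave IC50.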
In general terms: In ATP-based viability assays light output follows the ATP content of the culture.

The target of a further experiment is T1, FLT3-ITD (Homo sapiens, UniProt P36888).
T1 sequence (P36888 1-993): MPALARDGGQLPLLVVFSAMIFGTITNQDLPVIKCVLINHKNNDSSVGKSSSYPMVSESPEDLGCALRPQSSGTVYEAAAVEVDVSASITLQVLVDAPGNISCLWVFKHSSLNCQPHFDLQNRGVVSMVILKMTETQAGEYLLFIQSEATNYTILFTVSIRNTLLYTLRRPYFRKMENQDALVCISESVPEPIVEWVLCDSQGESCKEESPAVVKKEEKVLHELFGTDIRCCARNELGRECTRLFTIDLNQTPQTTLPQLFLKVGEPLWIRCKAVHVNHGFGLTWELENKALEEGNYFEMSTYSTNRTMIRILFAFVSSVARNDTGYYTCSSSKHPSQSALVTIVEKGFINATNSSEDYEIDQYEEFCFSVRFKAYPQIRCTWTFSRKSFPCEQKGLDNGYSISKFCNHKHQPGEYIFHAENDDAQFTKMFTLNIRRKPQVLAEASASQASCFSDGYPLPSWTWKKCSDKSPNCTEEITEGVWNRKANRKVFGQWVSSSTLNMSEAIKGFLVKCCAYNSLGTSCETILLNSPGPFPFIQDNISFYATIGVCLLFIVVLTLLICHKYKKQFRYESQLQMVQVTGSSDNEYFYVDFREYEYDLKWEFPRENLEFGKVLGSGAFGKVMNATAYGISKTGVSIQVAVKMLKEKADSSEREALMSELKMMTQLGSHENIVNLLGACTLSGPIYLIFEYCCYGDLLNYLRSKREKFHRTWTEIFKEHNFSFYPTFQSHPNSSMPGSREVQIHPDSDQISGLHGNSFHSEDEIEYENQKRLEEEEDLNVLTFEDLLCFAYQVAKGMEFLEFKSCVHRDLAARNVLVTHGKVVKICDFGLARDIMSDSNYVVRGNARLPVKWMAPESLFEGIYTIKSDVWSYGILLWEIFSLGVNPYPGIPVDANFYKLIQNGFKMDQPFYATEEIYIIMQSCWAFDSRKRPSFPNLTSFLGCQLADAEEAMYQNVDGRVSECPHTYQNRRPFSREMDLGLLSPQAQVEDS
Kind of experiment: FLT3-ITD recombinant enzyme kinase assay (AlphaScreen). It counts as biochemical. The conditions noted are these: 8 pt; read-out: FLT3_ITD 8 pt: IC50. In short, it runs like this:
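Recombinant enzyme phosphorylated biotinylated poly(Glu4-Tyr) peptide (30 nM final) with ATP at 10 μM for FLT3-ITD and FLT3-D835Y or 100 μM for c-KIT. Phosphopeptide was detected by AlphaScreen with streptavidin donor and anti-phosphotyrosine (PY20) acceptor beads (10 μg/mL), read at 580 nm, for IC50 determination.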
A general note: In Alpha technology, singlet oxygen from a donor bead excites a nearby acceptor bead.

Regarding `COc1ncc(NC(=O)Cc2ccc(-c3cnc4[nH]c(-c5ccc(C#N)nc5)cc4c3)cc2F)cc1C(F)(F)F` [Compound P-0011, 2-[4-[2-(6-cyano-3-pyridyl)-1H-pyrrolo[2,3-b]pyridin-5-yl]-2-fluoro-phenyl]-N-[6-methoxy-5-(trifluoromethyl)-3-pyridyl]acetamide], in experiment [1], the IC50 was 0.0001 to 10 µM.

In experiment [1], `COc1ncc(NC(=O)Cc2ccc(-c3cnc4[nH]c(-c5ccnc(C#N)c5)cc4c3)cc2F)cc1C(F)(F)F` [Compound P-0013, 2-[4-[2-(2-cyano-4-pyridyl)-1H-pyrrolo[2,3-b]pyridin-5-yl]-2-fluoro-phenyl]-N-[6-methoxy-5-(trifluoromethyl)-3-pyridyl]acetamide] returned an IC50 of 0.0001 to 10 µM.

On to `COc1ncc(NC(=O)Cc2ccc(-c3cnc4[nH]c(-c5ccc(C#N)nc5)cc4c3)c(F)c2)cc1C(F)(F)F` [Compound P-0014, 2-[4-[2-(6-cyano-3-pyridyl)-1H-pyrrolo[2,3-b]pyridin-5-yl]-3-fluoro-phenyl]-N-[6-methoxy-5-(trifluoromethyl)-3-pyridyl]acetamide], for which the 50% inhibitory concentration (IC50) in experiment [1] was in the range of 0.0001 to 10 µM.

Turning to `COc1ncc(NC(=O)Cc2ccc(-c3cnc4[nH]c(-c5cnn(C(F)F)c5)cc4c3)cc2F)cc1C(F)(F)F` [Compound P-0015, 2-[4-[2-[1-(difluoromethyl)pyrazol-4-yl]-1H-pyrrolo[2,3-b]pyridin-5-yl]-2-fluoro-phenyl]-N-[6-methoxy-5-(trifluoromethyl)-3-pyridyl]acetamide], the IC50 in experiment [1] is 0.0001 to 10 µM.

`COc1ncc(NC(=O)Cc2ccc(-c3cnc4[nH]c(-c5ccnc(C#N)c5)cc4c3)c(F)c2)cc1C(F)(F)F` [Compound P-0016, 2-[4-[2-(2-cyano-4-pyridyl)-1H-pyrrolo[2,3-b]pyridin-5-yl]-3-fluoro-phenyl]-N-[6-methoxy-5-(trifluoromethyl)-3-pyridyl]acetamide]: the concentration for half-maximal inhibition (IC50) in experiment [1] was in the range of 0.0001 to 10 µM.

As to `Cn1cc(Nc2ncc(-c3ccc(CC(=O)Nc4cc(C(F)(F)F)ccn4)cc3F)cn2)cn1` [Compound P-0017, 2-[3-fluoro-4-[2-[(1-methylpyrazol-4-yl)amino]pyrimidin-5-yl]phenyl]-N-[4-(trifluoromethyl)-2-pyridyl]acetamide], the IC50 (in experiment [1]; on FLT3-ITD) was 0.0001 to 10 µM each time.

As to `Cn1cnc(Nc2ncc(-c3ccc(CC(=O)Nc4cc(C(F)(F)F)ccn4)cc3F)cn2)c1` [Compound P-0018, 2-[3-fluoro-4-[2-[(1-methylimidazol-4-yl)amino]pyrimidin-5-yl]phenyl]-N-[4-(trifluoromethyl)-2-pyridyl]acetamide], the IC50 (in experiment [1]; on FLT3-ITD) was 0.0001 to 10 µM in each case.

For the compound `Cn1cc(Nc2ncc(-c3cc(F)c(CC(=O)Nc4cc(C(F)(F)F)ccn4)cc3F)cn2)cn1` [Compound P-0019, 2-[2,5-difluoro-4-[2-[(1-methylpyrazol-4-yl)amino]pyrimidin-5-yl]phenyl]-N-[4-(trifluoromethyl)-2-pyridyl]acetamide], the IC50 (in experiment [1]; on FLT3-ITD) was 0.0001 to 10 µM in each case.

Consider `Cn1cnc(Nc2ncc(-c3cc(F)c(CC(=O)Nc4cc(C(F)(F)F)ccn4)cc3F)cn2)c1` [Compound P-0020, 2-[2,5-difluoro-4-[2-[(1-methylimidazol-4-yl)amino]pyrimidin-5-yl]phenyl]-N-[4-(trifluoromethyl)-2-pyridyl]acetamide], for which the IC50 (in experiment [1]; at FLT3-ITD) was 0.0001 to 10 µM in each case.

In the case of `O=C(Cc1cc(F)c(-c2cnc(Nc3cnn(C(F)F)c3)nc2)cc1F)Nc1cc(C(F)(F)F)ccn1` [Compound P-0021, 2-[4-[2-[[1-(difluoromethyl)pyrazol-4-yl]amino]pyrimidin-5-yl]-2,5-difluoro-phenyl]-N-[4-(trifluoromethyl)-2-pyridyl]acetamide], the IC50 (in experiment [1]; at FLT3-ITD) was 0.0001 to 10 µM each time.

As for `Cn1cnc(Nc2ncc(-c3ccc(CC(=O)Nc4cc(C(F)(F)F)ccn4)cc3)cn2)c1` [Compound P-0022, 2-[4-[2-[(1-methylimidazol-4-yl)amino]pyrimidin-5-yl]phenyl]-N-[4-(trifluoromethyl)-2-pyridyl]acetamide], the half-maximal inhibitory concentration (IC50) (in experiment [1]; at FLT3-ITD) was 0.0001 to 10 µM each time.

In the case of `O=C(Cc1ccc(-c2cnc(Nc3cnn(C(F)F)c3)nc2)cc1)Nc1cc(C(F)(F)F)ccn1` [Compound P-0023, 2-[4-[2-[[1-(difluoromethyl)pyrazol-4-yl]amino]pyrimidin-5-yl]phenyl]-N-[4-(trifluoromethyl)-2-pyridyl]acetamide], the 50% inhibitory concentration (IC50) (in experiment [1]; at FLT3-ITD) was 0.0001 to 10 µM throughout.

Take `COc1cc(-c2cc3cc(-c4ccc(CC(=O)Nc5cncc(C(F)(F)F)c5)cc4F)cnc3[nH]2)ccn1` [Compound P-0200, 2-(3-fluoro-4-(2-(2-methoxypyridin-4-yl)-1H-pyrrolo[2,3-b]pyridin-5-yl)phenyl)-N-(5-(trifluoromethyl)pyridin-3-yl)acetamide]: the concentration for half-maximal inhibition (IC50) (in experiment [1]; on FLT3-ITD) was 0.0001 to 10 µM each time.

`O=C(Cc1ccc(-c2cnc3[nH]c(-c4ccnc(N5CCOCC5)c4)cc3c2)c(F)c1)Nc1cncc(C(F)(F)F)c1` [Compound P-0201, 2-[3-fluoro-4-[2-(2-morpholino-4-pyridyl)-1H-pyrrolo[2,3-b]pyridin-5-yl]phenyl]-N-[5-(trifluoromethyl)-3-pyridyl]acetamide]: the concentration for half-maximal inhibition (IC50) (in experiment [1]; at FLT3-ITD) was 0.0001 to 10 µM in each case.

With `CCOc1n[nH]c2ncc(-c3ccc(CC(=O)Nc4cnc(OC)c(C(F)(F)F)c4)cc3F)cc12` [Compound P-0202, 2-[4-(3-ethoxy-1H-pyrazolo[3,4-b]pyridin-5-yl)-3-fluoro-phenyl]-N-[6-methoxy-5-(trifluoromethyl)-3-pyridyl]acetamide], the IC50 (in experiment [1]; on FLT3-ITD) was 0.0001 to 10 µM each time.

In the case of `COc1ncc(NC(=O)Cc2cc(F)c(-c3cnc(Nc4cnn(C)c4)nc3)cc2F)cc1C(F)(F)F` [Compound P-0208, 2-[2,5-difluoro-4-[2-[(1-methylpyrazol-4-yl)amino]pyrimidin-5-yl]phenyl]-N-[6-methoxy-5-(trifluoromethyl)-3-pyridyl]acetamide], the IC50 in experiment [1] fell in the range of 0.0001 to 10 µM.

In experiment [1], `CCn1cc(Nc2ncc(-c3ccc(CC(=O)Nc4cnc(OC)c(C(F)(F)F)c4)cc3F)cn2)cn1` [Compound P-0246, 2-[4-[2-[(1-ethylpyrazol-4-yl)amino]pyrimidin-5-yl]-3-fluoro-phenyl]-N-[6-methoxy-5-(trifluoromethyl)-3-pyridyl]acetamide] displayed a half-maximal inhibitory concentration (IC50) of 0.0001 to 10 µM.

In experiment [1], `CCn1cc(Nc2ncc(-c3cc(F)c(CC(=O)Nc4cnc(OC)c(C(F)(F)F)c4)cc3F)cn2)cn1` [Compound P-0247, 2-[4-[2-[(1-ethylpyrazol-4-yl)amino]pyrimidin-5-yl]-2,5-difluoro-phenyl]-N-[6-methoxy-5-(trifluoromethyl)-3-pyridyl]acetamide] returned an IC50 of 0.0001 to 10 µM.

The compound `CCn1cc(Nc2ncc(-c3ccc(CC(=O)Nc4cnc(C)c(C(F)(F)F)c4)cc3F)cn2)cn1` [Compound P-0248, 2-[4-[2-[(1-ethylpyrazol-4-yl)amino]pyrimidin-5-yl]-3-fluoro-phenyl]-N-[6-methyl-5-(trifluoromethyl)-3-pyridyl]acetamide] gave an IC50 in experiment [1] of 0.0001 to 10 µM.

`CCn1cc(Nc2ncc(-c3cc(F)c(CC(=O)Nc4cnc(C)c(C(F)(F)F)c4)cc3F)cn2)cn1` [Compound P-0249, 2-[4-[2-[(1-ethylpyrazol-4-yl)amino]pyrimidin-5-yl]-2,5-difluoro-phenyl]-N-[6-methyl-5-(trifluoromethyl)-3-pyridyl]acetamide] had a 50% inhibitory concentration (IC50) in experiment [1] of 0.0001 to 10 µM.

`COc1ncc(NC(=O)Cc2ccc(-c3cnc4[nH]nc(C5CC5)c4c3)cc2F)cc1C(F)(F)F` [Compound P-0262, 2-[4-(3-cyclopropyl-1H-pyrazolo[3,4-b]pyridin-5-yl)-2-fluoro-phenyl]-N-[6-methoxy-5-(trifluoromethyl)-3-pyridyl]acetamide] displayed an IC50 in experiment [1] of 0.0001 to 10 µM.

`COc1ncc(NC(=O)Cc2ccc(-c3cnc4[nH]nc(C5CC5)c4c3)cc2)cc1C(F)(F)F` [Compound P-0263, 2-[4-(3-cyclopropyl-1H-pyrazolo[3,4-b]pyridin-5-yl)phenyl]-N-[6-methoxy-5-(trifluoromethyl)-3-pyridyl]acetamide]: the concentration for half-maximal inhibition (IC50) in experiment [1] was in the range of 0.0001 to 10 µM.

The values above are taken from patent US10160747B2, “Compounds and methods for kinase modulation, and indications therefor” (Plexxikon Inc., priority 2016, dated 2018).
